Literature values as cited in patent US20240047033A1, “MULTI-OMICS METHODS FOR PRECISION MEDICINE” (UNIVERSITY OF PITTSBURGH-OF THE COMMONWEALTH SYSTEM OF …, priority 2020, published 2024).

System: non-small cell lung cancer (NSCLC) tumors
Details: pretreated chemorefractory NSCLC patients, Erlotinib monotherapy, 28 patients

## C#Cc1cccc(Nc2ncnc3cc(OCCOC)c(OCCOC)cc23)c1 [Erlotinib]
  time within which all treated patients progressed: six
